# Experimental data as given in ChEMBL document CHEMBL5360592, “Ursane-Type Triterpenes with a Phenylpropanoid Unit from Camellia ptilosperma and Evaluation of Their Cytotoxic Activities” (J Nat Prod, 2023).
# What was measured:
# Format in all cases: functional, cell-based
# [1] = Cytotoxicity against mouse Hepa1-6 cells assessed as inhibition of cell growth incubated for 24 hrs by MTT assay; conditions: Hepa1-6, 24 h
# HCT-116 = experiment: Cytotoxicity against human HCT-116 cells assessed as inhibition of cell growth incubated for 24 hrs by MTT assay; conditions: HCT-116, 24 h
# CT26 = experiment: Cytotoxicity against mouse CT26 cells assessed as inhibition of cell growth incubated for 24 hrs by MTT assay; conditions: CT26, 24 h
# HeLa = experiment: Cytotoxicity against human HeLa cells assessed as inhibition of cell growth incubated for 24 hrs by MTT assay
# [2] = Cytotoxicity against mouse LL2 cells assessed as inhibition of cell growth incubated for 24 hrs by MTT assay; conditions: Lewis lung carcinoma
# NCI-H460 = experiment: Cytotoxicity against human NCI-H460 cells assessed as inhibition of cell growth incubated for 24 hrs by MTT assay; conditions: NCI-H460, 24 h
# HT-29 = experiment: Cytotoxicity against human HT-29 cells assessed as inhibition of cell growth incubated for 24 hrs by MTT assay; conditions: HT-29, 24 h
# MDA-MB-231 = experiment: Cytotoxicity against human MDA-MB-231 cells assessed as inhibition of cell growth incubated for 24 hrs by MTT assay; conditions: MDA-MB-231, 24 h
# A549 = experiment: Cytotoxicity against human A549 cells assessed as inhibition of cell growth incubated for 24 hrs by MTT assay; conditions: A549, 24 h
SMILES,IC50 [1] [µM],IC50 (HCT-116) [µM],IC50 (CT26) [µM],IC50 (HeLa) [µM],IC50 [2] [µM],IC50 (NCI-H460) [µM],IC50 (HT-29) [µM],IC50 (MDA-MB-231) [µM],IC50 (A549) [µM]
COC(=O)[C@@]1(C)[C@@H]2CC[C@]3(C)[C@H]([C@@H]4O[C@H](c5ccc(O)c(OC)c5)[C@@H](C)OC4=C4[C@@H]5[C@@H](C)[C@H](C)CC[C@]5(C)CC[C@]43C)[C@@]2(C)CC[C@@H]1O,> 10,8.2,9.1,> 10,> 10,> 10,> 10,4.9,> 10
COc1cc([C@H]2OC3=C4[C@@H]5[C@@H](C)[C@H](C)CC[C@]5(C)CC[C@@]4(C)[C@]4(C)CC[C@H]5C(C)(C)[C@@H](O)CC[C@]5(C)[C@H]4[C@@H]3O[C@@H]2CO)ccc1O,2.7,1.4,> 10,0.7,> 10,> 10,5.1,2.7,> 10
COC(=O)[C@@]1(C)[C@@H]2CC[C@]3(C)[C@H]([C@@H]4O[C@@H](c5ccc(O)c(OC)c5)[C@@H](C)OC4=C4[C@@H]5[C@@H](C)[C@H](C)CC[C@]5(C)CC[C@]43C)[C@@]2(C)CC[C@@H]1O,4.1,> 10,> 10,8.1,> 10,> 10,8.5,> 10,> 10
COC(=O)[C@@]1(C)[C@@H]2CC[C@]3(C)[C@H]([C@@H]4O[C@H](C)[C@@H](c5ccc(O)c(OC)c5)OC4=C4[C@@H]5[C@@H](C)[C@H](C)CC[C@]5(C)CC[C@]43C)[C@@]2(C)CC[C@@H]1O,> 10,7.5,> 10,> 10,> 10,> 10,> 10,9.3,> 10
COc1cc([C@H]2O[C@@H]3C(=C4[C@@H]5[C@@H](C)[C@H](C)CC[C@]5(C)CC[C@@]4(C)[C@]4(C)CC[C@H]5C(C)(C)[C@@H](O)CC[C@]5(C)[C@@H]34)O[C@@H]2CO)ccc1O,4.7,5.7,7.5,5.2,> 10,> 10,6.8,2.2,> 10
COC(=O)[C@]1(C)[C@@H]2CC[C@]3(C)[C@H]([C@@H]4O[C@H](CO)[C@@H](c5ccc(O)c(OC)c5)OC4=C4[C@@H]5[C@@H](C)[C@H](C)CC[C@]5(C)CC[C@]43C)[C@@]2(C)CC[C@@H]1O,> 10,> 10,8.2,> 10,> 10,> 10,> 10,> 10,> 10
